The subject of series [1] is MDA-MB-231 breast cancer cell lines. Briefly: Evaluation of inhibition on cell growth (MTS). As to conditions: Homo sapiens, MDA-MB-231, 120 hours. Format: cell-based. The protocol:
(§1) MDA-MB-231 breast cancer cell lines (ATCC #HTB-26) and BxPC-3 pancreas cancer cell lines (ATCC #CRL 1687), which have been reported to express XIAP, were obtained from ATCC (American type culture collection; Rockville, Md.). MDA-MB-231 cell lines were incubated in L-15 medium supplemented with 10% FBS and 1% penicillin/streptomycin (Gibco BRL) at a T-75 cm^2 growth flask. In addition, BxPC-3 cell lines were incubated in RPMI medium supplemented with 10% FBS and 1% penicillin/streptomycin. For experiments of toxicity to normal cells, fibroblasts Hs27 (ATCC #CRL 1634) and Balb/c3t3 (ATCC #CCL 163) were used. The various cell lines were transferred into 96-well plates at a density of 3,000˜5,000 cells/100 μL, and cultured for 24 hours under conditions of 37° C., 5% CO2, 95% air, and 100% relative humidity (MDA-MB-231 cells were cultured under atmospheric conditions). The cells were treated with 10 μM˜0.1 nM of test compounds, and MDA-MB-231, BxPC-3, and normal cell lines were cultured for 120, 96, and 72 hours, respectively.
(§2) Cell viabilities of MDA-MB-231 cell lines were measured at an absorbance of 490 nm using CellTiter 96™ AQueous One Solution Cell proliferation Assay (MTS, Promega), and cell viabilities of BxPC-3 and normal cell lines were measured by fixing cells with 10% TCA (trichloroacetic acid), staining with SRB (sulforhodamine B), and measuring at 540 nm. From the values, GI50 values in which test compounds reduce the growth of cancer cells by 50% were calculated. The growth rates of cancer cells were calculated from following Equation 1 or 2. [(Ti−Tz)/(C−Tz)]×100 (for Ti>=Tz) [Equation 1] [(Ti−Tz)/Tz]×100 (for Ti<Tz) [Equation 2] In Equations 1 and 2, Tz refers to a density of untreated cells, which is an absorbance in 0% cell growth groups. C refers to a density of cells cultured by adding only medium, and Ti refers to a density of cells treated with test compounds.
(§3) GI50 value is the concentration of a test compound when the value of Equation 1 is 50, which indicates the concentration of test compound required to inhibit the cancer cells by 50%. On each measurement, test compounds were compared with a control.
(§4) The activity value of each compound (GI50 value) was shown in Table 5, and an IAP antagonist was used as a control.
(§5) In the activity measurement on MDA-MB-231 breast cancer cell lines, the values were represented as “***” for 100 nM or less, “**” for over 100 nM to below 1,000 nM, and “*” for 1,000 nM or more. In the measurement on normal cell lines, Balb/C and Hs27, the values were represented as “+++” for 10,000 nM or more, “++” for over 5,000 nM to below 10,000 nM, and “+” for 5,000 nM or less.

Series [2] in a line: Toxicity to normal cells (SRB). Format: cell-based, human. Particulars: human, Hs27 fibroblasts (normal cell line). The protocol:
as §1, §2, §3, §4, §5

Series [3] in a line: Toxicity to normal cells (SRB). In kind it is cell-based, mouse. As to conditions: mouse, Balb/c3t3 fibroblasts (normal cell line), read-out: BalB/C (GI50). The protocol:
as §1, §2, §3, §4, §5

Counter-ions that a name gives are not always drawn. Like-named read-outs stand apart in the source and are kept apart here.

Compound `CN[C@@H](C)C(=O)N[C@H](C(=O)N1CCC[C@H]1C(=O)Nc1cc2c(Nc3c(Cl)ccc4c3OCO4)ncnc2cc1OCCOC)C(C)(C)C` [Example 3, ((S)—N-(4-(5-chlorobenzo[d][1,3]dioxol-4-ylamino)-7-(2-methoxyethoxy)quinazolin-6-yl)-1-((S)-3,3-dimethyl-2-((S)-2-(methylamino)propanamido)butanoyl)pyrrolidine-2-carboxamide hydrochloride] gave a GI50 in series [1] of 0.1 to 1 µM. In addition, the GI50 at 72 h in series [2] and in series [3] was above 10 µM each time.

In turn, `CN[C@@H](C)C(=O)N[C@H](C(=O)N1CCC[C@H]1C(=O)Nc1ccc2ncnc(Nc3cccc(Cl)c3F)c2c1)C(C)(C)C` [Example 4, (S)—N-(4-(3-chloro-2-fluorophenylamino)quinazolin-6-yl)-1-((S)-3,3-dimethyl-2-((S)-2-(methylamino)propanamido)butanoyl)pyrrolidine-2-carboxamide hydrochloride] returned a GI50 in series [1] of 0.1 to 1 µM. The GI50 at 72 h in series [2] and in series [3] was above 10 µM each time.

In series [1], `CN[C@@H](C)C(=O)N[C@H](C(=O)N1CCC[C@H]1C(=O)Nc1cc2c(Nc3ccc(F)c(Cl)c3)ncnc2cc1OCCOC)C(C)(C)C` [Example 5, (S)—N-(4-(3-chloro-4-fluorophenylamino)-7-(2-methoxyethoxy)quinazolin-6-yl)-1-((S)-3,3-dimethyl-2-((S)-2-(methylamino)propanamido)butanoyl)pyrrolidine-2-carboxamide hydrochloride] had a GI50 of 0.1 to 1 µM. The GI50 at 72 h in series [2] and in series [3] was above 10 µM in each case.

Regarding `CN[C@@H](C)C(=O)N[C@H](C(=O)N1CCC[C@H]1C(=O)Nc1cc2c(Nc3ccc(F)c(Cl)c3F)ncnc2cc1OCCOC)C(C)(C)C` [Example 6, (S)—N-(4-(3-chloro-2,4-difluorophenylamino)-7-(2-methoxyethoxy)quinazolin-6-yl)-1-((S)-3,3-dimethyl-2-((S)-2-(methylamino)propanamido)butanoyl)pyrrolidine-2-carboxamide hydrochloride], the GI50 in series [1] lay within 0.1 to 1 µM. Besides, the GI50 at 72 h in series [2] and in series [3] was above 10 µM each time.

`CN[C@@H](C)C(=O)N[C@H](C(=O)N1CCC[C@H]1C(=O)Nc1cc2c(Nc3cccc(Cl)c3F)ncnc2cc1OC)C(C)(C)C.Cl` [Example 7, hydrochloride] showed a GI50 in series [1] of at most 0.1 µM. In addition, the GI50 at 72 h in series [2] and in series [3] was above 10 µM each time.

`COc1cc2ncnc(Nc3ccc(F)c(Cl)c3F)c2cc1NC(=O)[C@@H]1CCCN1C(=O)[C@@H](NC(=O)[C@H](C)N)C(C)(C)C` [Example 12, (S)-1-((S)-2-((S)-2-aminopropanamido)-3,3-dimethylbutanoyl)-N-(4-(3-chloro-2,4-difluorophenylamino)-7-methoxyquinazolin-6-yl)pyrrolidine-2-carboxamide hydrochloride] had a GI50 in series [1] of at least 1 µM. Also, the GI50 at 72 h in series [2] and in series [3] was above 10 µM throughout.

`C=CC(=O)N[C@@H](C)C(=O)N[C@H](C(=O)N1CCC[C@H]1C(=O)Nc1cc2c(Nc3ccc(F)c(Cl)c3F)ncnc2cc1OC)C(C)(C)C` [Example 13, (S)-1-((S)-2-((S)-2-acrylamidopropanamido)-3,3-dimethylbutanoyl)-N-(4-(3-chloro-2,4-difluorophenylamino)-7-methoxyquinazolin-6-yl)pyrrolidine-2-carboxamide hydrochloride] registered a GI50 in series [1] of at least 1 µM. Also, the GI50 at 72 h in series [2] and in series [3] was above 10 µM each time.

In the case of `CN[C@@H](C)C(=O)N[C@H](C(=O)N1CCC[C@H]1C(=O)Nc1cc2c(Nc3ccc(F)c(Cl)c3F)ncnc2cc1O[C@H]1CCOC1)C(C)(C)C` [Example 14, (S)—N-(4-(3-chloro-2,4-difluorophenylamino)-7-((S)-tetrahydrofuran-3-yloxy)quinazolin-6-yl)-1-((S)-3,3-dimethyl-2-((S)-2-(methylamino)propanamido)butanoyl)pyrrolidine-2-carboxamide hydrochloride], the GI50 in series [1] was at most 0.1 µM. The GI50 at 72 h in series [2] and in series [3] was above 10 µM each time.

Consider `CN[C@@H](C)C(=O)N[C@H](C(=O)N1CCC[C@H]1C(=O)Nc1cc2c(Nc3ccc(F)c(Cl)c3F)ncnc2cc1O[C@@H]1CCOC1)C(C)(C)C` [Example 16, (S)—N-(4-(3-chloro-2,4-difluorophenylamino)-7-((R)-tetrahydrofuran-3-yloxy)quinazolin-6-yl)-1-((S)-3,3-dimethyl-2-((S)-2-(methylamino)propanamido)butanoyl)pyrrolidine-2-carboxamide hydrochloride], for which, in series [1], the GI50 fell in the range of 0.1 to 1 µM. The GI50 at 72 h in series [2] and in series [3] was above 10 µM in each case.

In turn, `CN[C@@H](C)C(=O)N[C@H](C(=O)N1CC[C@H]1C(=O)Nc1cc2c(Nc3ccc(F)c(Cl)c3F)ncnc2cc1OC)C(C)(C)C` [Example 20, (S)—N-(4-(3-chloro-2,4-difluorophenylamino)-7-methoxyquinazolin-6-yl)-1-((S)-3,3-dimethyl-2-((S)-2-(methylamino)propanamido)butanoyl)azetidine-2-carboxamide hydrochloride] displayed a GI50 in series [1] of 0.1 to 1 µM. For the same compound, the GI50 at 72 h in series [2] and in series [3] was above 10 µM each time.

`CN[C@@H](C)C(=O)N[C@H](C(=O)N1CCC[C@H]1C(=O)Nc1cc2c(Nc3ccc(N4CCN(C5CCN(C)CC5)CC4)cc3)ncnc2cc1OC)C(C)(C)C` [Example 110, hydrochloride] gave a GI50 in series [1] of at most 0.1 µM. Besides, the GI50 at 72 h in series [2] was above 10 µM.

For the compound `CN[C@@H](C)C(=O)N[C@H](C(=O)N1CCC[C@H]1C(=O)Nc1cc2c(Nc3ccc(Cn4ccnc4)cc3)ncnc2cc1OC)C(C)(C)C` [Example 111, (S)—N-(4-((4-((1H-imidazol-1-yl)methyl)phenyl)amino)-7-methoxyquinazolin-6-yl)-1-((S)-3,3-dimethyl-2-((S)-2-(methylamino)propanamido)butanoyl)pyrrolidine-2-carboxamide hydrochloride], in series [1], the GI50 was 0.1 to 1 µM. In series [2], this compound showed a GI50 at 72 h above 10 µM.

The compound `CN[C@@H](C)C(=O)N[C@H](C(=O)N1CCC[C@H]1C(=O)Nc1cc2c(Nc3ccc(N4CCN(C)CC4)c(F)c3)ncnc2cc1OC)C(C)(C)C` [Example 112, (S)-1-((S)-3,3-dimethyl-2-((S)-2-(methylamino)propanamido)butanoyl)-N-(4-((3-fluoro-4-(4-methylpiperazin-1-yl)phenyl)amino)-7-methoxyquinazolin-6-yl)pyrrolidine-2-carboxamide] registered a GI50 in series [1] of at most 0.1 µM. In addition, the GI50 at 72 h in series [2] is above 10 µM.

With `CN[C@@H](C)C(=O)N[C@H](C(=O)N1CCC[C@H]1C(=O)Nc1cc2c(Nc3ccc(N4CCCC4)c(Cl)c3)ncnc2cc1OC)C(C)(C)C` [Example 113, (S)—N-(4-((3-chloro-4-(pyrrolidin-1-yl)phenyl)amino)-7-methoxyquinazolin-6-yl)-1-((S)-3,3-dimethyl-2-((S)-2-(methylamino)propanamido)butanoyl)pyrrolidine-2-carboxamide], in series [1], the GI50 is at most 0.1 µM. The compound further showed a GI50 at 72 h in series [2] above 10 µM.
